Data from US9783545B2, “Pyrazolopyridazines and methods for treating retinal-degenerative diseases and hearing loss associated with usher syndrome” (Usher III Initiative, Inc., priority 2012, dated 2017).
pEC50, pIC50: −log10 of the molar value.

Tests used:
N48K Clarin-1 [1] = target: T1, N48K Clarin-1 (Homo sapiens, UniProt P58418, N48K); experiment: Restoration of expression of N48K Clarin-1, 24 hour incubation (high content imaging of HA-tagged N48K Clarin-1); type: cell-based; conditions: HEK293-Clarin-1 N48K-HA D9 cell line, 24 hr incubation with compound; read-out: IC50 (the source's name)
T1 construct: expressed in transfected cells
T1 sequence (P58418 1-232 N48K): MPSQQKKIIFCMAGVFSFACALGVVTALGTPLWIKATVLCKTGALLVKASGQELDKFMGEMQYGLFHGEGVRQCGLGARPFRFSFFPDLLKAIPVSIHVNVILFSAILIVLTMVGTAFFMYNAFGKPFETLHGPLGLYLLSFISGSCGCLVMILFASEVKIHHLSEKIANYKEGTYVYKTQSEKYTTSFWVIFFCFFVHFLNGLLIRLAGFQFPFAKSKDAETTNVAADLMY
Procedure: Assay Method Showing Activity of Compounds of the Invention that Restore Expression of N48K Clarin-1 (24 hour incubation)
(§1) Clarin-1 is the protein encoded by the gene mutated in Usher III Syndrome (Adato et al., 2002). The most prevalent mutation in Clarin-1 in North America is N48K, which is reported to cause loss of glycosylation and a trafficking defect (Tian et al., 2009). […] Thus it is believed that restoring the trafficking of N48K Clarin-1 to the cell surface provides an avenue of intervention for Usher III Sydrome.
(§2) In a typical experiment, these cells were seeded on collagen-coated 96-well plates at a cell density of 20,000 cells per well in Dulbecco's Modified Eagle Medium (DMEM) contain 10% fetal bovine serum in a humidified incubator at 37° C., 5% CO2. After an overnight incubation, compounds were added for a 24 hr incubation in DMEM medium contain 10% fetal bovine serum in a humidified incubator at 37° C., 5% CO2. As a negative control, DMSO was used at 0.25% final concentrations. Compounds were typically tested in triplicate fashion. After the 24 hr incubation with compounds, the cells were fixed by the addition of 10% buffered formalin to the wells to achieve a final concentration of 4% formalin. After a 20 min fixation at room temperature, wells were washed three times with phosphate-buffered saline (PBS) containing Triton X-100 (0.02 phosphate, 150 mM NaCl, 0.1% Triton X-100).
(§3) The HA-tagged N48K Clarin-1 was detected with an antibody against the HA tag (HA.11 Clone 16B12 Monoclonal antibody, Covance #MMS-101P) at a dilution of 1:1000 in PBS containing Triton X-100. After a 90 min incubation, wells were washed three times with PBS containing Triton X-100, and a secondary antibody (Goat anti-mouse IgG-Cy3 (1.5 mg/ml), Jackson IR Europe #115165003) was added to the wells at a dilution of 1:250 in PBS containing Triton X-100 for 45 min. Wells were subsequently washed three times with PBS containing Triton X-100, and a final staining for nuclei was performed by the addition of DAPI (4′,6-diamidino-2-phenylindole) at a dilution of 1:10,000. The imaging of the stained cells was performed on an InCell 1000 High Content Imager (GE Healthcare), reading out the Cy3 channel for N48K Clarin-1 and the DAPI channel for nuclei. The images were analyzed and quantitated using a specific algorithm. This algorithm measured the HA-Clarin-1 staining for each cell based on the additional nuclear segmentation of the DAPI signal (FIG. 1). This algorithm measured the intensity per cell, and thus it is less sensitive for variation in cell number. Per well, approximately 2,000 cells were measured to achieve an average density per cell measurement. FIG. 1 illustrates high content analysis. DAPI-stained nuclei are used to perform segmentation of the image into individual cells. The density observed in the N48K Clarin-1 channel (Cy3) is then calculated per cell averaged over a field.

N48K Clarin-1 [2] = target: T1, N48K Clarin-1; experiment: Restoration of expression of N48K Clarin-1, 2 hour incubation then 22 hr fresh medium (high content imaging of HA-tagged N48K Clarin-1); type: cell-based; conditions: HEK293-Clarin-1 N48K-HA D9 cell line, 2 hr incubation with compound, then 22 hr in fresh medium
Procedure: An Assay Method Showing Activity of Compounds of the Invention that Restore Expression of N48K Clarin-1(2 hour incubation)
as §1
as §2, with “for a 2 hr incubation” for “for a 24 hr incubation”, “After the 2 hr incubation” for “After the 24 hr incubation”, “cells were incubated in fresh medium for 22 hr. The cells were then fixed by” for “cells were fixed by”
as §3, with “images are” for “images were”, “measurement.” for “measurement. FIG. 1 illustrates high content analysis. DAPI-stained nuclei are used to perform segmentation of the image into individual cells. The density observed in the N48K Clarin-1 channel (Cy3) is then calculated per cell averaged over a field.”

| Compound | pEC50 (N48K Clarin-1 [1]) | pIC50 (N48K Clarin-1 [2]) |
| --- | --- | --- |
| CS(=O)(=O)CCn1nc(-c2ccccc2)c2c(Cl)c(-c3ccccc3)nnc21 [IIq, 4-chloro-1-(2-methylsulfonylethyl)-3,5-diphenyl-pyrazolo[3,4-c]pyridazine] | ≥ 5.70 | ≥ 5.40 |
| CN1CCN(CCn2nc(-c3cnn(C)c3)c3c(Cl)c(-c4ccccc4)nnc32)CC1 [Ic, 4-chloro-3-(1-methyl-1H-pyrazol-4-yl)-1-(2-(4-methylpiperazin-1-yl)ethyl)-5-phenyl-1H-pyrazolo[3,4-c]pyridazine] | ≥ 5.70 | 5.10 to 5.40 |
| CN1CCN(CCn2nc(-c3cccn3C)c3c(Cl)c(-c4ccccc4)nnc32)CC1 [Ik, 4-chloro-3-(1-methyl-1H-pyrrol-2-yl)-1-(2-(4-methylpiperazin-1-yl)ethyl)-5-phenyl-1H-pyrazolo[3,4-c]pyridazine] | ≥ 5.70 | ≥ 5.40 |
| Fc1cccc(-c2nn(CCn3ccnc3)c3nnc(-c4ccccc4)c(Cl)c23)c1 [IIs, 4-chloro-3-(3-fluorophenyl)-1-(2-imidazol-1-ylethyl)-5-phenyl-pyrazolo[3,4-c]pyridazine] | ≥ 5.70 | ≥ 5.40 |
| Clc1c(-c2ccccc2)nnc2c1c(-c1ccccc1)nn2CCn1ccnc1 [IIc, 4-chloro-1-(2-imidazol-1-ylethyl)-3,5-diphenyl-pyrazolo[3,4-c]pyridazine] | ≥ 5.70 | ≥ 5.40 |
| CC1(Cn2nc(-c3ccccc3)c3c(Cl)c(-c4ccccc4)nnc32)COC1 [IIf, 4-chloro-1-[(3-methyloxetan-3-yl)methyl]-3,5-diphenyl-pyrazolo[3,4-c]pyridazine] | ≥ 5.70 | ≥ 5.40 |
| CN1CCN(CCn2nc(-c3ccc4c(c3)CCO4)c3c(Cl)c(-c4ccccc4)nnc32)CC1 [Il, 4-chloro-3-(2,3-dihydrobenzofuran-5-yl)-1-(2-(4-methylpiperazin-1-yl)ethyl)-5-phenyl-1H-pyrazolo[3,4-c]pyridazine] | ≥ 5.70 | ≥ 5.40 |
| COC/C=C/c1nn(CCN2CCN(C)CC2)c2nnc(-c3ccccc3)c(Cl)c12 [Ii, (E)-4-chloro-3-(3-methoxyprop-1-en-1-yl)-1-(2-(4-methylpiperazin-1-yl)ethyl)-5-phenyl-1H-pyrazolo[3,4-c]pyridazine] | ≥ 5.70 | ≥ 5.40 |
| Clc1c(-c2ccccc2)nnc2c1c(-c1ccccc1)nn2Cc1cocn1 [IIh, 4-[(4-chloro-3,5-diphenyl-pyrazolo[3,4-c]pyridazin-1-yl)methyl]oxazole] | ≥ 5.70 | ≥ 5.40 |
| Clc1c(-c2ccccc2)nnc2c1c(-c1ccccc1)nn2Cc1cccnc1 [IIn, 4-chloro-3,5-diphenyl-1-(3-pyridylmethyl)pyrazolo[3,4-c]pyridazine] | ≥ 5.70 | ≥ 5.40 |
| Clc1c(-c2ccccc2)nnc2c1c(-c1ccccc1)nn2C[C@H]1CCCO1 [IIj, 4-chloro-3,5-diphenyl-1-[[(2R)-tetrahydrofuran-2-yl]methyl]pyrazolo[3,4-c]pyridazine] | ≥ 5.70 | ≥ 5.40 |
| Cn1cncc1Cn1nc(-c2ccccc2)c2c(Cl)c(-c3ccccc3)nnc21 [IIa, 4-chloro-1-[(3-methylimidazol-4-yl)methyl]-3,5-diphenyl-pyrazolo[3,4-c]pyridazine] | ≥ 5.70 | 5.10 to 5.40 |
| O=C1CCCN1CCn1nc(-c2ccccc2)c2c(Cl)c(-c3ccccc3)nnc21 [IIb, 1-[2-(4-chloro-3,5-diphenyl-pyrazolo[3,4-c]pyridazin-1-yl)ethyl]pyrrolidin-2-one] | ≥ 5.70 | ≥ 5.40 |
| F[C@H]1CCN(CCn2nc(-c3ccccc3)c3c(Cl)c(-c4ccccc4)nnc32)C1 [IIt, 4-chloro-1-[2-[(3S)-3-fluoropyrrolidin-1-yl]ethyl]-3,5-diphenyl-pyrazolo[3,4-c]pyridazine] |  | ≥ 5.40 |
| FCCn1nc(-c2ccccc2)c2c(Cl)c(-c3ccccc3)nnc21 [IIl, 4-chloro-1-(2-fluoroethyl)-3,5-diphenyl-pyrazolo[3,4-c]pyridazine] | ≥ 5.70 | ≥ 5.40 |
| Cn1cc(Cn2nc(-c3ccccc3)c3c(Cl)c(-c4ccccc4)nnc32)cn1 [IIg, 4-chloro-1-[(1-methylpyrazol-4-yl)methyl]-3,5-diphenyl-pyrazolo[3,4-c]pyridazine] | ≥ 5.70 | ≥ 5.40 |
